Measured values reported in patent publication US20230339922A1, “COVALENT EGFR INHIBITORS AND METHODS OF USE THEREOF” (DANA-FARBER CANCER INSTITUTE, INC., priority 2020, published 2023).

Columns and labels:
[1] = system: EGFR mutant L858R Ba/F3 cells; assay: Ba/F3 cell proliferation (Cell Titer Glo), EGFR L858R; type: cell-based, murine; settings: Mus musculus, BaF3, Ba/F3 cells with EGFR L858R, 72 hours exposure, read-out: L BaF3
Text: (§1) The EGFR mutant L858R Ba/F3 cells have been previously described (Zhou, W., et al. Nature 462, 2009, 1070-1074). The EGFR C797S and C775S mutations were introduced via site directed mutagenesis using the Quick Change Site-Directed Mutagenesis kit into a vector containing EGFR […] mutation (Stratagene; La Jolla, CA) according to the manufacturer’s instructions. All constructs were confirmed by DNA sequencing. The constructs were then shuttled into the retroviral vector JP1540 by either using the Cre-recombination system (Agilent Technologies, Santa Clara, CA) or the In-fusion HD Cloning kit (Takara Bio USA, Inc.; Mountain view, CA). Ba/F3 cells were then infected with retrovirus per standard protocols, as described previously (Zhou, et al, Nature 2009). […]
(§2) Growth and inhibition of growth was assessed by the Cell Titer Glo assay (Promega, Madison, WI) and was performed according to the manufacturer’s instructions. The Cell Titer Glo assay is a luminescence-based method used to determine the number of viable cells based on quantitation of the ATP present, which is directly proportional to the amount of metabolically active cells present. Ba/F3 cells of different EGFR genotypes were exposed to compounds for 72 hours and the number of cells used per experiment was determined empirically as has been previously established (Zhou, et al., Nature 2009). […]

[2] = system: EGFR L858R/C797S Ba/F3 cells; assay: Ba/F3 cell proliferation (Cell Titer Glo), EGFR L858R/C797S; type: cell-based, murine; settings: Mus musculus, BaF3, Ba/F3 cells with EGFR L858R/C797S, 72 hours exposure, read-out: L/C797S
Text: as §1, §2

- EC50 [1]: 6 nM
- EC50 [2]: 334 nM
Structure (SMILES): C=CC(=O)Nc1cc(C(=O)Nc2nc3cccc(C)c3n2[C@@H]2CCCCN(C(=O)C=C)C2)cs1 [compound 001]
